# Measured values published in patent US20170354639A1, “DITERPENOID DERIVATIVES AND METHODS OF USE THEREOF” (Biogen MA Inc., priority 2014, published 2017).
# Molecular target: Nrf2-Keap1 (Homo sapiens, UniProt Q14145)
# Experiment: DiscoveRx PathHunter Nrf2-Keap1 nuclear translocation functional assay (agonist format)
# Type: cell-based
# Details: in duplicate, agonist mode; for EC50: 10 concentrations, 3-fold serial dilutions, 30 μM top concentration, normalized to CDDO methyl ester and vehicle; for activation at 10 µM / % Activation @ 10 μM: single concentration of 10 μM, normalized to control ligand (CDDO methyl ester) and vehicle
# Method: DiscoveRx PathHunter® Nrf2-Keap1 Functional Assay
# DiscoveRx's Nrf2-Keapl translocation assay was used to profile compounds. Primary Screening was performed in duplicate at a single concentration of 10 μM and EC50 determinations were performed in duplicate at 10 concentrations with 3-fold serial dilutions at a 30 μM top concentration or an otherwise specified top concentration.
# The PathHunter® Nuclear Translocation assay detects translocation of a target protein to, or from, the nucleus. In this system, Prolink™ (PK), a small enzyme fragment, is fused to the protein of interest and Enzyme Acceptor (EA) is localized in the nucleus. Activation of the signaling pathway induces the target protein to either transit into the nucleus, thus forcing complementation of the PK and EA fragments, or out of the nucleus, hindering complementation of the fragments.
# Cell handling: PathHunter Pathway cell lines were expanded from freezer stocks according to standard procedures. 5000 cells were seeded in Cell Plating Reagent 0 (containing 1% FBS) to a total volume of 20 μL into white walled, 384-well microplates and incubated for the overnight prior to testing.
# Agonist format: For Agonist determination, cells were incubated with sample to induce response. Dilution of sample stocks was performed to generate 100× sample in DMSO. Intermediate dilution of sample stocks was performed to generate 5× sample in assay buffer (Cell Plating Reagent 0 containing 1% FBS). 5 μL of 5× sample was added to cells and incubated at room temperature for 6 hours. Vehicle concentration was 1%.
# Signal detection: Assay signal was generated through a single addition of 25 μL (100% v/v) of PathHunter Flash Detection reagent, followed by a one hour incubation at room temperature. Microplates were read following signal generation with a PerkinElmer Envision™ instrument for chemiluminescent signal detection.
# Data analysis: Compound activity was analyzed using CBIS data analysis suite (ChemInnovation, CA). For agonist mode assays, percentage activity was calculated using the following formula: % Activity=100%×(mean RLU of test sample−mean RLU of vehicle control)/(mean MAX RLU control ligand−mean RLU of vehicle control). For EC50 determination, a control agonist dose response curve was generated in the Keap 1-Nrf2 biosensor assay, data was normalized to the maximal and minimal response observed in the presence of the control ligand and vehicle respectively. CDDO methyl ester was used as a control compound. Compounds were tested in the agonist mode of the assay and data was normalized to the maximal and minimal response observed in the presence of control ligand and vehicle.
# Nrf2-Keap1, sequence (Q14145 whole entry): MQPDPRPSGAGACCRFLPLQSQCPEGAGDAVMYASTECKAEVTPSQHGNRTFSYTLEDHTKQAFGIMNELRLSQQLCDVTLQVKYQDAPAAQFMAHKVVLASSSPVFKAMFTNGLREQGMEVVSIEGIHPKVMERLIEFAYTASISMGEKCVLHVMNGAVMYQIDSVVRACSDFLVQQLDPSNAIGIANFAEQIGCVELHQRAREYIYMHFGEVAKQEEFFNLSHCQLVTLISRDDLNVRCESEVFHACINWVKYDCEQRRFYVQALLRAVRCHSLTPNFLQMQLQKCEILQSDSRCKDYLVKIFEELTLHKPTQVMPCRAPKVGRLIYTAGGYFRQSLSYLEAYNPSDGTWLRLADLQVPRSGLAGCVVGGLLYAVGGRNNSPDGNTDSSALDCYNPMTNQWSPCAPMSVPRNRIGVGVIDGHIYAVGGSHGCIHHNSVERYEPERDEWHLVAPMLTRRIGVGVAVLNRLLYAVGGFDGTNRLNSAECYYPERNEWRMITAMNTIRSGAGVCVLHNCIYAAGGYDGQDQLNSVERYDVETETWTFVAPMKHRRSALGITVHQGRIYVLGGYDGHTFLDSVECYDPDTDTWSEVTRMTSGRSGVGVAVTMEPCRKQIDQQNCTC
EC50 [nM],SMILES,other results
500 to 2000,"C=C1CC[C@@H]2[C@]3(C)COS(=O)O[C@@H]3CC[C@@]2(C)[C@@H]1C/C=C1/C(=O)OC[C@H]1NC=O (single isomer, unassigned) [Example 20]",activation at 10 µM (6 h): > 100%
,"C=C1CC[C@@H]2[C@]3(C)COS(=O)O[C@@H]3CC[C@@]2(C)[C@@H]1C/C=C1/C(=O)OC[C@H]1NC(=O)OC (single isomer, unassigned) [Example 30]",activation at 10 µM (6 hours): 51 to 100%
500 to 2000,"C=C1CC[C@@H]2[C@]3(C)COCO[C@@H]3CC[C@@]2(C)[C@@H]1C/C=C1/C(=O)OCC1NC=O (single isomer, unassigned) [Example 39A]",% Activation @ 10 μM (6 hours): A (A: >100%)
,"C=C1CC[C@@H]2[C@]3(C)COCO[C@@H]3CC[C@@]2(C)[C@@H]1C/C=C1/C(=O)OCC1NC=O (single isomer, unassigned) [Example 39B]",% Activation @ 10 μM (6 hours): B (B: 51 to 100%)
> 2000,"C=C1CC[C@@H]2[C@]3(C)COS(=O)O[C@@H]3CC[C@@]2(C)[C@@H]1C/C=C1/C(=O)OCC1NC(=O)CO (single isomer, unassigned) [Example 41A]",
500 to 2000,"C=C1CC[C@@H]2[C@]3(C)COS(=O)O[C@@H]3CC[C@@]2(C)[C@@H]1C/C=C1/C(=O)OCC1NC(=O)CO (single isomer, unassigned) [Example 41B]",
500 to 2000,"C=C1CC[C@@H]2[C@@H](C)[C@@](O)(C(F)(F)F)CC[C@@]2(C)[C@@H]1C/C=C1/C(=O)OCC1NC=O (single isomer, unassigned) [Example 43A]",
< 500,"C=C1CC[C@@H]2[C@@H](C)[C@@](O)(C(F)(F)F)CC[C@@]2(C)[C@@H]1C/C=C1/C(=O)OCC1NC=O (single isomer, unassigned) [Example 43B]",
> 2000,"C=C1CC[C@@H]2[C@@H](C)[C@](O)(C(F)(F)F)CC[C@@]2(C)[C@@H]1C/C=C1/C(=O)OCC1NC=O (single isomer, unassigned) [Example 44A]",
500 to 2000,"C=C1CC[C@@H]2[C@@H](C)[C@](O)(C(F)(F)F)CC[C@@]2(C)[C@@H]1C/C=C1/C(=O)OCC1NC=O (single isomer, unassigned) [Example 44B]",
> 2000,"C=C1CC[C@@H]2[C@]3(C)COCO[C@@H]3CC[C@@]2(C)[C@@H]1C/C=C1/C(=O)OCC1NC(C)=O (single isomer, unassigned) [Example 45A]",
> 2000,"C=C1CC[C@@H]2[C@]3(C)COCO[C@@H]3CC[C@@]2(C)[C@@H]1C/C=C1/C(=O)OCC1NC(C)=O (single isomer, unassigned) [Example 45B]",
> 2000,"C=C1CC[C@@H]2[C@]3(C)COCO[C@@H]3CC[C@@]2(C)[C@@H]1C/C=C1/C(=O)OCC1NC(=O)COC (single isomer, unassigned) [Example 46A]",
> 2000,"C=C1CC[C@@H]2[C@]3(C)COCO[C@@H]3CC[C@@]2(C)[C@@H]1C/C=C1/C(=O)OCC1NC(=O)COC (single isomer, unassigned) [Example 46B]",
500 to 2000,"C=C1CC[C@@H]2[C@@H](C)[C@@H](O)CC[C@@]2(C)[C@@H]1C/C=C1/C(=O)OC[C@H]1O [Example 1, (S,E)-4-hydroxy-3-(2-((1R,4aR,5R,6S,8aR)-6-hydroxy-5,8a-dimethyl-2-methylenedecahydronaphthalen-1-yl)ethylidene)dihydrofuran-2(3H)-one]",activation at 10 µM (6 h): 51 to 100%

SMILES,EC50 [nM],other results
"C=C1CC[C@@H]2[C@]3(C)COS(=O)O[C@@H]3CC[C@@]2(C)[C@@H]1C/C=C1/C(=O)OC[C@@H]1NC(=O)OC (single isomer, unassigned) [Example 31]",500 to 2000,activation at 10 µM (6 hours): > 100%
"C=C1CC[C@@H]2[C@]3(C)COS(=O)O[C@@H]3CC[C@@]2(C)[C@@H]1C/C=C1/C(=O)OCC1NC(=O)COC (single isomer, unassigned) [Example 40B]",500 to 2000,activation at 10 µM (6 hours): > 100%
